From patent US9328138B2 (priority 2011, dated 2016)

Key:
[1] = target: HCV NS3 protease genotype 3a (3A-1) (Hepatitis C virus genotype 3a, UniProt Q81258); test: HCV NS3 protease time-resolved fluorescence (TRF) assay, genotype 3a; type: biochemical; settings: Ki 3a
Summary of the method: (§1)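 Time-resolved fluorescence, ex 340/em 615 nm, 400 μs delay; IC50 by four-parameter fit. Enzyme preincubated with compound 10 min, then TRF substrate 25 nM final added and reaction run 6 h at RT. Buffer HEPES pH 7.5 with NaCl, glycerol, Triton X-100, DTT, PEG 8000.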

[2] = target: T1, HCV genotype 1b (BK) NS3 modified enzyme with a R155K mutation (Hepatitis C virus genotype 1b, UniProt P26663, R1181K); test: HCV NS3 protease time-resolved fluorescence (TRF) assay, genotype 1b R155K; type: biochemical; settings: Ki 1b R155K, genotype 1b (BK) NS3 R155K; single value
T1 construct: HCV genotype 1b (BK) NS3 modified enzyme
Summary of the method: as §1

| SMILES | Ki [1] | Ki [2] |
| --- | --- | --- |
| C=C[C@@H]1C[C@]1(NC(=O)[C@@H]1C[C@@H]2CN1C(=O)[C@H](C1CCCCC1)NC(=O)O[C@@H]1C[C@H]1CCCCCc1c(nc3c(OC)cccc3c1OCCN1CCOCC1)O2)C(=O)NS(=O)(=O)C1(C)CC1 [Example 128, (1aR,5S,8S,10R,22aR)-5-cyclohexyl-N-[(1R,2S)-2-ethenyl-1-{[(1-methylcyclopropyl)sulfonyl]carbamoyl}cyclopropyl]-13-methoxy-17-[2-(morpholin-4-yl)ethoxy]-3,6-dioxo-1,1a,3,4,5,6,9, 10,18,19,20,21,22,22a-tetradecahydro-8H-7,10-methanocyclopropa [18,19][1,10,3,6]dioxadiaza cyclononadecino[11,12-b]quinoline-8-carboxamide] | 13000 pM | 410 pM |
| C=C[C@@H]1C[C@]1(NC(=O)[C@@H]1C[C@@H]2CN1C(=O)[C@H](C(C)(C)C)NC(=O)O[C@@H]1C[C@H]1CCCCCc1c(nc3cc(C(F)(F)F)ccc3c1OCCN1CCOCC1)O2)C(=O)NS(=O)(=O)C1(C)CC1 [Example 129, (1aR,5S,8S,10R,22aR)-5-tert-butyl-N-[(1R,2S)-2-ethenyl-1-{[(1-methylcyclopropyl)sulfonyl]carbamoyl}cyclopropyl]-17-[2-(morpholin-4-yl)ethoxy]-3,6-dioxo-14-(trifluoromethyl)-1,1a,3,4,5,6,9,10,18,19,20,21,22,22a-tetradecahydro-8H-7,10-methanocyclopropa[18,19][1,10,3,6] dioxadiazacyclononadecino[11,12-b] quinoline-8-carboxamide] | 8700 pM | 510 pM |
| C=C[C@@H]1C[C@]1(NC(=O)[C@@H]1C[C@@H]2CN1C(=O)[C@H](C(C)(C)C)NC(=O)O[C@@H]1C[C@H]1CCCCCc1c(nc3ccccc3c1OCCN(C)c1ccccc1)O2)C(=O)NS(=O)(=O)C1(C)CC1 [Example 130, (1aR,5S,8S,10R,22aR)-5-tert-butyl-N-[(1R,2S)-2-ethenyl-1-{[(1-methylcyclopropyl)sulfonyl]carbamoyl}cyclopropyl]-17-{2-[methyl(phenyl)amino]ethoxy}-3,6-dioxo-1,1a,3,4,5,6,9,10,18,19, cyclopropa[18,19][1,10,3,6] dioxadiazacyclononadecino [11,12-b]quinoline-8-carboxamide] | 18000 pM | 2200 pM |
| C=C[C@@H]1C[C@]1(NC(=O)[C@@H]1C[C@@H]2CN1C(=O)[C@H](C(C)(C)C)NC(=O)O[C@@H]1C[C@H]1CCCCCc1c(nc3ccccc3c1OCCCN1CCN(C)CC1)O2)C(=O)NS(=O)(=O)C1(C)CC1 [Example 131, (1aR,5S,8S,10R,22aR)-5-tert-butyl-N-[(1R,2S)-2-ethenyl-1-{[(1-methylcyclopropyl)sulfonyl]carbamoyl}cyclopropyl]-17-[3-(4-methylpiperazin-1-yl)propoxy]-3,6-dioxo-1,1a,3,4,5,6,9,10,18,19,20,21,22,22a-tetradecahydro-8H-7,10-methanocyclopropa[8,19][1,10,3,6]dioxadiazacyclononadecino[11,12-b]quinoline-8-carboxamide] | 1300 pM | 110 pM |
| C=C[C@@H]1C[C@]1(NC(=O)[C@@H]1C[C@@H]2CN1C(=O)[C@H](C(C)(C)C)NC(=O)O[C@@H]1C[C@H]1CCCCCc1c(nc3cc(C(C)C)ccc3c1OCCN1CCOCC1)O2)C(=O)NS(=O)(=O)C1(C)CC1 [Example 132, (1aR,5S,8S,10R,22aR)-5-tert-butyl-N-[(1R,2S)-2-ethenyl-1-{[(1-methylcyclopropyl)sulfonyl]carbamoyl}cyclopropyl]-17-[2-(morpholin-4-yl)ethoxy]-3,6-dioxo-14-(propan-2-yl)-1,1a,3,4,5,6,9,10,18,19,20,21,22,22a-tetradecahydro-8H-7,10-methanocyclopropa[18,19][1,10,3,6]dioxadiazacyclononadecino[11,12-b]quinoline-8-carboxamide] | 6800 pM | 390 pM |
| C=C[C@@H]1C[C@]1(NC(=O)[C@@H]1C[C@@H]2CN1C(=O)[C@H](C(C)(C)C)NC(=O)O[C@@H]1C[C@H]1CCCCCc1c(nc3ccccc3c1OCCCN1CCC1)O2)C(=O)NS(=O)(=O)C1(C)CC1 [Example 133, (1aR,5S,8S,10R,22aR)-17-[3-(azetidin-1-yl)propoxy]-5-tert-butyl-N-[(1R,2S)-2-ethenyl-1-{[(1-methylcyclopropyl)sulfonyl]carbamoyl}cyclopropyl]-3,6-dioxo-1,1a,3,4,5,6,9,10,18,19,20,21,22,22a-tetradecahydro-8H-7,10-methanocyclopropa[18,19][1,10,3,6]dioxadiazacyclononadecino[11,12-b]quinoline-8-carboxamide] | 1000 pM | 110 pM |
| C=C[C@@H]1C[C@]1(NC(=O)[C@@H]1C[C@@H]2CN1C(=O)[C@H](C(C)(C)C)NC(=O)O[C@@H]1C[C@H]1CCCCCc1c(nc3ccccc3c1OCCN1CCCCC1)O2)C(=O)NS(=O)(=O)C1(C)CC1 [Example 134, (1aR,5S,8S,10R,22aR)-5-tert-butyl-N-[(1R,2S)-2-ethenyl-1-{[(1-methylcyclopropyl)sulfonyl]carbamoyl}cyclopropyl]-3,6-dioxo-17-[2-(piperidin-1-yl)ethoxy]-1,1a,3,4,5,6,9,10,18,19,20,21,22,22a-tetradeca hydro-8H-7,10-methano cyclopropa[18,19][1,10,3,6]dioxadiazacyclo nonadecino[11,12-b]quinoline-8-carboxamide] | 6100 pM | 560 pM |
| C=C[C@@H]1C[C@]1(NC(=O)[C@@H]1C[C@@H]2CN1C(=O)[C@H](C(C)(C)C)NC(=O)O[C@@H]1C[C@H]1CCCCCc1c(nc3ccccc3c1OCCN1CCCC1)O2)C(=O)NS(=O)(=O)C1(C)CC1 [Example 135] | 1800 pM | 200 pM |
| C=C[C@@H]1C[C@]1(NC(=O)[C@@H]1C[C@@H]2CN1C(=O)[C@H](C(C)(C)C)NC(=O)O[C@@H]1C[C@H]1CCCCCc1c(nc3ccccc3c1OCCN1CC3(CCC3)C1)O2)C(=O)NS(=O)(=O)C1(C)CC1 [Example 136, (1aR,5S,8S,10R,22aR)-17-[2-(2-azaspiro[3.3]hept-2-yl)ethoxy]-5-tert-butyl-N-[(1R,2S)-2-ethenyl-1-{[(1-methylcyclopropyl)sulfonyl]carbamoyl}cyclopropyl]-3,6-dioxo-1,1a,3,4,5,6,9,10,18,19,20,21,22,22a-tetradecahydro-8H-7,10-methanocyclopropa[18,19][1,10,3,6] dioxadiazacyclononadecino [11,12-b]quinoline-8-carboxamide] | 5100 pM | 580 pM |
| C=C[C@@H]1C[C@]1(NC(=O)[C@@H]1C[C@@H]2CN1C(=O)[C@H](C(C)(C)C)NC(=O)O[C@@H]1C[C@H]1CCCCCc1c(nc3ccccc3c1OC[C@H]1CCN(C(=O)OC(C)(C)C)C1)O2)C(=O)NS(=O)(=O)C1(C)CC1 [Example 137, tert-butyl (3S)-3-({[(1aR,5S,8S,10R,22aR)-5-tert-butyl-8-{[(1R,2S)-2-ethenyl-1-{[(1-methylcyclopropyl)sulfonyl]carbamoyl}cyclopropyl]carbamoyl}-3,6-dioxo-1,1a,3,4,5,6,9,10,18,19,20,21,22,22a-tetradecahydro-8H-7,10-methanocyclopropa[18,19][1,10,3,6]dioxadiazacyclononadecino[11,12-b]quinolin-17-yl]oxy}methyl)pyrrolidine-1-carboxylate] | 1200 pM | 140 pM |
| C=C[C@@H]1C[C@]1(NC(=O)[C@@H]1C[C@@H]2CN1C(=O)[C@H](C(C)(C)C)NC(=O)O[C@@H]1C[C@H]1CCCCCc1c(nc3ccccc3c1OC[C@@H]1CCN(C(=O)OC(C)(C)C)C1)O2)C(=O)NS(=O)(=O)C1(C)CC1 [Example 138, tert-butyl (3R)-3-({[(1aR,5S,8S,10R, 22aR)-5-tert-butyl-8-{[(1R,2S)-2-ethenyl-1-{[(1-methylcyclopropyl)sulfonyl]carbamoyl}cyclopropyl]carbamoyl}-3,6-dioxo-1,1a,3,4,5,6,9,10,18,19,20, 21,22,22a-tetradeca hydro-8H-7,10-methanocyclopropa [18,19][1,10,3,6]dioxadiazacyclononadecino[11,12-b]quinolin-17-yl]oxy}methyl)pyrrolidine-1-carboxylate] | 7000 pM | 630 pM |
| C=C[C@@H]1C[C@]1(NC(=O)[C@@H]1C[C@@H]2CN1C(=O)[C@H](C(C)(C)C)NC(=O)O[C@@H]1C[C@H]1CCCCCc1c(nc3ccccc3c1OCC1CCCN(CC)C1)O2)C(=O)NS(=O)(=O)C1(C)CC1 (stereo partly drawn) [Example 139, (1aR,5S,8S,10R,22aR)-5-tert-butyl-N-[(1R,2S)-2-ethenyl-1-{[(1-methylcyclopropyl)sulfonyl]carbamoyl}cyclopropyl]-17-[(1-ethylpiperidin-3-yl)methoxy]-3,6-dioxo-1,1a,3,4,5,6,9,10,18,19, 20,21,22,22a-tetradeca hydro-8H-7,10-methanocyclopropa[18,19] [1,10,3,6]dioxadiazacyclo nonadecino[11,12-b]quinoline-8-carboxamide] | 380 pM | 100 pM |
| C=C[C@@H]1C[C@]1(NC(=O)[C@@H]1C[C@@H]2CN1C(=O)[C@H](C(C)(C)C)NC(=O)O[C@@H]1C[C@H]1CCCCCc1c(nc3ccccc3c1OCC1CN(C)CCN1C)O2)C(=O)NS(=O)(=O)C1(C)CC1 (stereo partly drawn) [Example 140, (1ar,5S,8S,10R,22aR)-5-tert-butyl-17-[(1,4-dimethylpiperazin-2-yl)methoxy]-N-[(1R,2S)-2-ethenyl-1-{[(1-methylcyclopropyl)sulfonyl]carbamoyl}cyclopropyl]-3,6-dioxo-1,1a,3,4,5,6,9,10,18,19,20,21,22,22a-tetradecahydro-8H-7,10-methanocyclopropa[18,19][1,10,3,6] dioxadiazacyclononadecino [11,12-b]quinoline-8-carboxamide] | 3000 pM | 260 pM |
